Test results as given in patent publication US20190100534A1, “Cephem Compounds with Latent Reactive Groups” (Gladius Pharmaceuticals, Inc., priority 2017, published 2019).

How the values were obtained:
[1] = tested on: CF (Citrobacter freundii); assay: MIC determination; format: cell-based; details: CAMH broth, 20 μM Apo-Transferrin, 37° C., 18 hours; for MIC: Citrobacter freundii, read-out: Minimum Inhibitory Concentrations, CF
Outline: (§1)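 Using an iron-depleting medium (CAMH plus 20 μM apo-transferrin), organisms at 0.5 McFarland faced compound from 64 μg/mL downward in twofold steps. Readout: visual, after 18 h at 37 °C.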

[2] = tested on: ENC (Enterobacter cloacae); assay: MIC determination; format: cell-based; details: CAMH broth, 20 μM Apo-Transferrin, 37° C., 18 hours
Outline: as §1

PM (Proteus mirabilis) = assay: MIC determination; format: cell-based; details: CAMH broth, 20 μM Apo-Transferrin, 37° C., 18 hours; for MIC: Proteus mirabilis, read-out: Minimum Inhibitory Concentrations, PM
Outline: as §1

SM (Serratia marcescens) = assay: MIC determination; format: cell-based; details: CAMH broth, 20 μM Apo-Transferrin, 37° C., 18 hours; for MIC: Serratia marcescens, read-out: Minimum Inhibitory Concentrations, SM
Outline: as §1

EC(KB1 CTX-M-14) = assay: MIC determination; format: cell-based, Escherichia coli; details: for MIC: Escherichia coli, 18 h, read-out: Minimum Inhibitory Concentrations, EC(KB1 CTX-M-14)
Outline: as §1

EC(KB2 CTX-M-14) = assay: MIC determination; format: cell-based, Escherichia coli; details: for MIC: Escherichia coli, 18 h, read-out: Minimum Inhibitory Concentrations, EC(KB2 CTX-M-14)
Outline: as §1

KP (ATCC KPC-3) = assay: MIC determination; format: cell-based, Klebsiella pneumoniae; details: CAMH broth, 20 μM Apo-Transferrin, 37° C., 18 hours
Protocol: (§2) Sterile technique was used throughout these experiments. Suspensions of organisms were removed from storage (−80° C.) and partially thawed. Partially thawed organisms (1 μL) were inoculated into 3 mL sterile LB Broth in a sterile culture tube and capped, then cultured at 37° C. with shaking for 4-5 hours until the optical density at 600 nm (OD600) was greater than 0.1 on a single beam spectrophotometer.
(§3) The concentration of organisms was adjusted to 0.08-0.1 OD600 (0.5 McFarland units) by dilution with sterile cation-adjusted Meuller-Hinton (CAMH) broth. The suspensions were used within 30 minutes of preparation.
(§4) A stock solution was made of each test compound by measuring 6.4 mg of the compound on an analytical balance and dissolving it in DMSO (1 mL) to get a transparent solution. The solutions were stored at −20° C. and thawed prior to use.
(§5) Sterile CAMH broth (200 μL) containing 20 μM Apo-Transferrin was pipetted into the first row of 8 columns of a sterile, round-bottomed, transparent, 96-well microplate using an 8-channel pipette equipped with sterile tips. One hundred μL was pipetted into the wells of the remaining 11 rows.
(§6) With an 8-channel pipette equipped with sterile tips, 100 μL of the first row solution was transferred to the second row and mixed. The process was repeated for the second to third rows and continued through row 11. One hundred μL from row 11 was removed and discarded so that all 12 rows contained 100 μL. Row 12 contained no compound and rows 1-11 contained 64, 32, 16, 8, 4, 2, 1, 0.5, 0.25, 0.125, […] of a given compound.
(§7) Inoculant suspensions (0.5 μL) were added to the 12 wells of each column. The plates were then covered and incubated at 37° C. overnight for 18 hours.
(§8) For each organism the MIC was determined by identifying the transparent well with the lowest test compound concentration.

KP (GJ 5659 TEM-26) = assay: MIC determination; format: cell-based, Klebsiella pneumoniae; details: CAMH broth, 20 μM Apo-Transferrin, 37° C., 18 hours
Protocol: as §2, §3, §4, §5, §6, §7, §8

KP (RR -1) = assay: MIC determination; format: cell-based, Klebsiella pneumoniae; details: CAMH broth, 20 μM Apo-Transferrin, 37° C., 18 hours
Protocol: as §2, §3, §4, §5, §6, §7, §8

KP (URMC-1) = assay: MIC determination; format: cell-based, Klebsiella pneumoniae; details: CAMH broth, 20 μM Apo-Transferrin, 37° C., 18 hours
Protocol: as §2, §3, §4, §5, §6, §7, §8

KP (URMC-2) = assay: MIC determination; format: cell-based, Klebsiella pneumoniae; details: CAMH broth, 20 μM Apo-Transferrin, 37° C., 18 hours
Protocol: as §2, §3, §4, §5, §6, §7, §8

KP (URMC-3) = assay: MIC determination; format: cell-based, Klebsiella pneumoniae; details: CAMH broth, 20 μM Apo-Transferrin, 37° C., 18 hours
Protocol: as §2, §3, §4, §5, §6, §7, §8

KP(ATCC SHV-18) = assay: MIC determination; format: cell-based, Klebsiella pneumoniae; details: CAMH broth, 20 μM Apo-Transferrin, 37° C., 18 hours
Protocol: as §2, §3, §4, §5, §6, §7, §8

KP(GJ 5934 TEM-26) = assay: MIC determination; format: cell-based, Klebsiella pneumoniae; details: CAMH broth, 20 μM Apo-Transferrin, 37° C., 18 hours
Protocol: as §2, §3, §4, §5, §6, §7, §8

KP(JMI KPC-2) = assay: MIC determination; format: cell-based, Klebsiella pneumoniae; details: CAMH broth, 20 μM Apo-Transferrin, 37° C., 18 hours
Protocol: as §2, §3, §4, §5, §6, §7, §8

KP(ATCC TEM-10/TEM-12) = format: cell-based, Klebsiella pneumoniae; details: CAMH broth, 20 μM Apo-Transferrin, 37° C., 18 hours
Protocol: as §2, §3, §4, §5, §6, §7, §8

ENA (URMC-1) = assay: MIC determination; format: cell-based, Enterobacter aerogenes; details: CAMH broth, 20 μM Apo-Transferrin, 37° C., 18 hours; for MIC: Klebsiella aerogenes, read-out: Minimum Inhibitory Concentrations, ENA (URMC-1)
Protocol: as §2, §3, §4, §5, §6, §7, §8

ENA (URMC-2) = assay: MIC determination; format: cell-based, Enterobacter aerogenes; details: CAMH broth, 20 μM Apo-Transferrin, 37° C., 18 hours; for MIC: Klebsiella aerogenes, read-out: Minimum Inhibitory Concentrations, ENA (URMC-2)
Protocol: as §2, §3, §4, §5, §6, §7, §8

PM (RR -1) = assay: MIC determination; format: cell-based, Proteus mirabilis; details: CAMH broth, 20 μM Apo-Transferrin, 37° C., 18 hours
Protocol: as §2, §3, §4, §5, §6, §7, §8

[3] = tested on: various Pseudomonas strains; assay: MIC determination, summary in text; format: cell-based, Pseudomonas aeruginosa; details: review of Tables 1-1 and 1-2
Protocol: as §2, §3, §4, §5, §6, §7, §8

[4] = tested on: both Acinetobacter baumannii strains tested; assay: MIC determination, summary in text; format: cell-based; details: review of Table 2
Protocol: as §2, §3, §4, §5
With an 8-channel pipette equipped with sterile tips, 100 μL of the first row solution was transferred to the second row and mixed. […]
as §8

various enteric bacteria = assay: MIC determination, summary in text; format: cell-based; details: review of Tables 3-1 to 3-6
Protocol: as §2, §3, §4, §5
To each well of the first row was pipetted 2.0 μL of the 6.4 mg/mL stock test compound stock solution to give 1:100 dilutions and a final concentration of 64 μg/mL and mixed.
as §6, §7, §8

Row | Structure (SMILES) | MIC [1] [µg/mL] | Mimimum Inhibitory Concentrations, ENC [2] [microgram/mL] | MIC (PM (Proteus mirabilis)) [µg/mL] | MIC (SM (Serratia marcescens)) [µg/mL] | MIC (EC(KB1 CTX-M-14)) [µg/mL] | MIC (EC(KB2 CTX-M-14)) [µg/mL] | Minimum Inhibitory Concentrations, KP (ATCC KPC-3) (KP (ATCC KPC-3)) [microgram/mL] | Minimum Inhibitory Concentrations, KP (GJ 5659 TEM-26) (KP (GJ 5659 TEM-26)) [microgram/mL] | Mimimum Inhibitory Concentrations, KP (RR -1) (KP (RR -1)) [microgram/mL] | Minimum Inhibitory Concentrations, KP (URMC-1) (KP (URMC-1)) [microgram/mL] | Minimum Inhibitory Concentrations, KP (URMC-2) (KP (URMC-2)) [microgram/mL] | Minimum Inhibitory Concentrations, KP (URMC-3) (KP (URMC-3)) [microgram/mL] | Minimum Inhibitory Concentrations, KP(ATCC SHV-18) (KP(ATCC SHV-18)) [microgram/mL] | Minimum Inhibitory Concentrations, KP(GJ 5934 TEM-26) (KP(GJ 5934 TEM-26)) [microgram/mL] | Minimum Inhibitory Concentrations, KP(JMI KPC-2) (KP(JMI KPC-2)) [microgram/mL] | Minimum Inhibitory Concentrations, KP(ATCC TEM-10/TEM-12) (KP(ATCC TEM-10/TEM-12)) [microgram/mL] | MIC (ENA (URMC-1)) [µg/mL] | MIC (ENA (URMC-2)) [µg/mL] | Mimimum Inhibitory Concentrations, PM (RR -1) (PM (RR -1)) [microgram/mL] | MICs for various Pseudomonas strains, in words [3] | also measured
1 | CC(C)(O/N=C(\C(=O)N[C@@H]1C(=O)N2C(C(=O)O)=C(C=Cc3ccc(C[N+]4(C)CCc5cc(O)c(O)cc5C4)cc3)CS[C@H]12)c1csc(N)n1)C(=O)O (mixture of isomers) [Compound 407, 2-(4-((E/Z)-2-((6R,7R)-7-((Z)-2-(2-aminothiazol-4-yl)-2-(((2-carboxypropan-2-yl)oxy)imino)acetamido)-2-carboxy-8-oxo-5-thia-1-azabicyclo[4.2.0]oct-2-en-3 yl)vinyl)benzyl)-6,7-dihydroxy-2-methyl-1,2,3,4-tetrahydroisoquinolin-2-ium] | ≤ 0.06 | 4 | ≤ 0.06 | 0.25 | 2 | 64 | 64 | 2 | 0.5 | 0.13 | 0.25 | 0.13 | 2 | 2 | 16 | 0.25 | 0.5 | 0.5 | ≤0.06 | low microgram/mL MICs | MICs for both Acinetobacter baumannii strains tested, in words [4]: lower microgram/mL MICs
2 | CC(C)(O/N=C(\C(=O)N[C@@H]1C(=O)N2C(C(=O)O)=C(C=Cc3ccc(C[n+]4ccc(-c5ccc(O)c(O)c5)cc4)cc3)CS[C@H]12)c1csc(N)n1)C(=O)O (mixture of isomers) [Compound 412, 1-(4-((E/Z)-2-((6R,7R)-7-((Z)-2-(2-aminothiazol-4-yl)-2-(((2-carboxypropan-2-yl)oxy)imino)acetamido)-2-carboxy-8-oxo-5-thia-1-azabicyclo[4.2.0]oct-2-en-3-yl)vinyl)benzyl)-4-(3,4-dihydroxyphenyl)pyridin-1-ium] | ≤ 0.06 | 4 | ≤ 0.06 | 0.5 | 0.5 | 1 | >64 | 2 | 0.5 | ≤0.06 | ≤0.06 | 0.25 | 1 | 0.5 | 64 | 32 | 0.25 | 0.13 | ≤0.06 |  | 
3 | CC(C)(O/N=C(\C(=O)N[C@@H]1C(=O)N2C(C(=O)O)=C(C=Cc3ccc(C[n+]4ccc5cc(O)c(O)cc5c4)cc3)CS[C@H]12)c1csc(N)n1)C(=O)O (mixture of isomers) [Compound 435, 2-(4-((E/Z)-2-((6R,7R)-7-((Z)-2-(2-aminothiazol-4-yl)-2-(((2-carboxypropan-2-yl)oxy)imino)acetamido)-2-carboxy-8-oxo-5-thia-1-azabicyclo[4.2.0]oct-2-en-3-yl)vinyl)benzyl)-6,7-dihydroxyisoquinolin-2-ium] |  | 16 |  |  |  |  | >64 | 0.13 | ≤0.06 | ≤0.06 | ≤0.06 | ≤0.06 | 0.25 | <0.06 | 4 | 2 |  |  | ≤0.06 | low microgram/mL MICs | Minimum Inhibitory Concentrations, CF [1]: ≤0.06 microgram/mL; Minimum Inhibitory Concentrations, PM (PM (Proteus mirabilis)): ≤0.06 microgram/mL; Minimum Inhibitory Concentrations, SM (SM (Serratia marcescens)): 0.25 microgram/mL; Minimum Inhibitory Concentrations, EC(KB1 CTX-M-14) (EC(KB1 CTX-M-14); EC(KB1 CTX-M-14), CAMH broth, 20 μM Apo-Transferrin, 37° C., 18 hours): ≤0.06 microgram/mL; Minimum Inhibitory Concentrations, EC(KB2 CTX-M-14) (EC(KB2 CTX-M-14); EC(KB2 CTX-M-14), CAMH broth, 20 μM Apo-Transferrin, 37° C., 18 hours): ≤0.06 microgram/mL; Minimum Inhibitory Concentrations, ENA (URMC-1) (ENA (URMC-1)): 0.13 microgram/mL; Minimum Inhibitory Concentrations, ENA (URMC-2) (ENA (URMC-2)): 0.13 microgram/mL; MICs for various enteric bacteria, in words (various enteric bacteria): low microgram/mL MICs
